Here are results for one cell line from the supplement of paper PMC10307832.

Test in all cases: relative viability (nuclei count vs DMSO), 5 days (fraction); higher = more cells survive
Compound in assay [1]: CC1CC(=O)N(C2=CN=C(N=C2N1C3CCCC3)NC4=C(C=C(C=C4)C(=O)NC5CCN(CC5)C)OC)C [NPK76-II-72-1] + CC(C)C[C@H](NC(=O)[C@H](Cc1ccccc1)NC(=O)c1cnccn1)B(O)O [Bortezomib] (partner 0.002 µM)
In outline:
(§1)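 Medians of duplicate plates are given as relative viability. That measure is the nuclei count in treated wells divided by the count in vehicle wells. Counts were taken on 4× images of lung cancer cell lines in 1536-well plates, 5 days after pin-tool dosing the day after seeding with one drug alone or a fixed anchor-drug dose plus five library-drug doses (not always all listed) in √10 steps.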

Compound in assay [2]: CC[C@@H]1C(=O)N(C)c2cnc(Nc3ccc(C(=O)NC4CCN(C)CC4)cc3OC)nc2N1C1CCCC1 [BI-2536] + Nc1ncn([C@H]2C[C@H](O)[C@@H](CO)O2)c(=O)n1 [Decitabine] (partner 2 µM)
In outline: as §1

Compound in assay [3]: CC1CC(=O)N(C2=CN=C(N=C2N1C3CCCC3)NC4=C(C=C(C=C4)C(=O)NC5CCN(CC5)C)OC)C [NPK76-II-72-1] + O=C(CCCCCCC(=O)Nc1ccccc1)NO [Vorinostat] (partner 1 µM)
In outline: as §1

Compound in assay [4]: CC[C@@H]1C(=O)N(C)c2cnc(Nc3ccc(C(=O)NC4CCN(C)CC4)cc3OC)nc2N1C1CCCC1 [BI-2536] + COc1cccc2cc(-c3nc([C@H]4CC[C@H](C(=O)O)CC4)n4ncnc(N)c34)[nH]c12 [OSI-027] (partner 0.5 µM)
In outline:
as §1

Consider UMC-11, for which the relative viability came to 0.743 in assay [1] (first compound 0.01 µM); 0.605 in assay [1] (first compound 0.03162 µM); 0.773 in assay [1] (first compound 0.1 µM); 0.659 in assay [1] (first compound 0.3162 µM); 0.788 in assay [1] (first compound 1 µM); 0.568 in assay [2] (first compound 0.01 µM). The relative viability in assay [2] (first compound 0.03162 µM) turned out to be 0.306; in assay [2] (first compound 0.1 µM) it was 0.232; in assay [2] (first compound 0.3162 µM) it was 0.265; in assay [2] (first compound 1 µM), 0.28; in assay [3] (first compound 0.01 µM), 0.358; in assay [3] (first compound 0.03162 µM), 0.365. Moreover, the relative viability in assay [3] (first compound 0.1 µM) amounted to 0.334; in assay [3] (first compound 0.3162 µM), 0.392; in assay [3] (first compound 1 µM), 0.309; in assay [4] (first compound 0.01 µM), 0.5; in assay [4] (first compound 0.03162 µM), 0.27; in assay [4] (first compound 0.1 µM), 0.138. Besides, the results for the relative viability in assay [4] (first compound 0.3162 µM) and in assay [4] (first compound 1 µM) were 0.192 and 0.158, respectively.
